In article PMC10762035, “Molecular basis of human trace amine-associated receptor 1 activation” (Nature Communications, 2024):
Where “and” joins values, the source holds several entries; their conditions need not be identical. Equal values may be shown once.

What was measured:
[1] = target: T1, hTA1 (Homo sapiens, UniProt Q96RJ0); experiment: Screen of 89 aminergic compounds at 10 µM, cAMP accumulation in HEK293T cells; format: cell-based; conditions: 10 µM of compound; HEK293T; threshold log2-fold change of 2;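 further: HEK293T cells co-transfected with hTA1 and GloSensor cAMP reporter, cAMP accumulation detected by luminescence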
T1 construct: expressed in transfected cells; host or cells: HEK293T
T1 sequence (Q96RJ0 1-339): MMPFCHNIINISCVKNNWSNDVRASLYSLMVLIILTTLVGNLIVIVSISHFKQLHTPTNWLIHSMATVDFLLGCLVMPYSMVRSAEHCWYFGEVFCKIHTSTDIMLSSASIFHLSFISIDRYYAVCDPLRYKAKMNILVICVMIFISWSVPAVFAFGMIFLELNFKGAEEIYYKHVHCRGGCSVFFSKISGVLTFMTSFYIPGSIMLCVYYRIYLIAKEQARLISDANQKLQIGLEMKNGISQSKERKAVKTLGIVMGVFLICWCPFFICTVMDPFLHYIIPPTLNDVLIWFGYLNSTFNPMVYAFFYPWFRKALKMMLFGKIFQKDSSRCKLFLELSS

[2] = target: T1, hTA1; experiment: GloSensor cAMP accumulation assay, concentration response, wild-type hTA1 in transfected HEK293T cells; format: cell-based; conditions: log[Compound], replicate wells;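 further: luminescence read after 30 min compound exposure at room temperature in cells preloaded with D-Luciferin, reflecting Gs-driven cAMP rise, efficacy scaled to the maximal β-PEA response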

SMILES	increase of signal over DMSO-treated controls (hTA1 activation) [1]	Normalized Luminescence Counts for WT hTA1 ([2]; M = -5)	Normalized Luminescence Counts for WT hTA1 ([2]; M = -5.522)	Normalized Luminescence Counts for WT hTA1 ([2]; M = -6)	Normalized Luminescence Counts for WT hTA1 ([2]; M = -6.522)	Normalized Luminescence Counts for WT hTA1 ([2]; M = -7)	Normalized Luminescence Counts for WT hTA1 ([2]; M = -7.522)	Normalized Luminescence Counts for WT hTA1 ([2]; M = -8)	Normalized Luminescence Counts for WT hTA1 ([2]; M = -8.522)	Normalized Luminescence Counts for WT hTA1 ([2]; M = -9)	Normalized Luminescence Counts for WT hTA1 ([2]; M = -9.522)	Normalized Luminescence Counts for WT hTA1 ([2]; M = -10)	Normalized Luminescence Counts for WT hTA1 ([2]; M = -10.522)	Normalized Luminescence Counts for WT hTA1 ([2]; M = -11)	Normalized Luminescence Counts for WT hTA1 ([2]; M = -11.522)	Normalized Luminescence Counts for WT hTA1 ([2]; M = -12)	Normalized Luminescence Counts for WT hTA1 ([2]; M = -12.522)
CN1C[C@H](C(=O)N[C@]2(C)O[C@@]3(O)[C@@H]4CCCN4C(=O)[C@H](Cc4ccccc4)N3C2=O)C=C2c3cccc4[nH]cc(c34)C[C@H]21 [ergotamine]	≥ 4 fold	44.5775 and 42.7529 and 37.8036	33.1851 and 35.1808 and 34.0176	22.5339 and 18.3829 and 18.9303	13.3539 and 12.6012 and 11.6889	5.28 and 4.447 and 4.037	2.783 and 2.007 and 2.3948	1.311 and 0.7184 and 0.9351	1.095 and 0.9921 and 1.163	0.7184 and 0.3649 and 0.5816	0.2737 and 0.2167 and 0.1254	0.1482 and 0.4219 and 0.2395	0.1825 and 0.5018 and 0.1939	0.114 and 0.536 and 0.4333	0.6956 and 0.3649 and 0.8895	0.479 and 0.6728 and 0.4562	0.3991 and 0.593 and 0.5018
C[C@H](N)Cn1ccc2cc(F)c(Cl)cc21 [Ro600175]	≥ 4 fold	52.641 and 46.7523 and 44.37 and 49.7206 and 44.9424 and 49.1048	20.1192 and 21.0025 and 20.1995 and 33.6184 and 30.3798 and 33.3903	10.3493 and 9.439 and 10.7776 and 14.1863 and 14.9846 and 14.3574	3.39 and 1.971 and 3.3096 and 6.785 and 7.013 and 6.8993	0.6865 and 0.9274 and 0.7668 and 2.03 and 1.973 and 1.7904	-0.2504 and 0.2582 and -0.2236 and 0.6842 and 0.6044 and 0.3991	0.5258 and 0.5794 and 1.275 and 0.4333 and 0.3763 and 0.3649	0.4991 and -0.1166 and 0.392 and 0.03421 and 0.3649 and 0.2509	0.01728 and 0.7935 and -0.1969 and 0.1026 and 0.3877 and 0.2737	0.07081 and -0.08979 and -0.1166 and -0.1482 and -0.114 and 0.07983	0.1243 and -0.009489 and 0.4188 and -0.1825 and -0.0114 and -0.03421	-0.06302 and -0.3842 and 0.1779 and -0.2053 and 0 and -0.05702	0.6329 and 0.3117 and 0.7132 and -0.06842 and 0.4447 and 0.2509	0.4188 and 0.7668 and 0.8738 and 0.4676 and 0.2509 and 0.707	0.5258 and 0.5526 and 1.302 and -0.114 and 0.2737 and 0.1368	0.2046 and 0.1779 and 0.2849 and 0.2623 and 0.4219 and 0.2395
O=C1Nc2cc(Cl)c(Cl)cc2N2CCNCC12 (stereo not drawn) [WAY161503]	≥ 4 fold	13.2601 and 18.8261 and 16.7307 and 26.6058 and 24.591 and 22.5763	7.105 and 8.152 and 8.742 and 7.88 and 6.893 and 7.327	0.3926 and 0.6218 and 0.4581 and 2.389 and 1.639 and 1.7967	-0.0003118 and -0.03305 and -0.426 and 0.5325 and 0.2955 and 0.6511	-0.426 and -1.114 and -0.7861 and -0.2575 (2×) and -0.3366	-0.8516 and -1.277 and -0.6879 and -0.3366 and -0.4946 and -1.166	-0.09854 and -0.3605 (2×) and 0.09799 and 0.6511 and -0.3761	-0.3605 and -0.7206 and -0.3932 and 1.165 and 1.046 and 0.6116	-1.048 and -0.2622 and -0.8516 and -0.06003 and 0.2165 and 0.414	-1.277 and -0.8516 and -0.7861 and 0.6116 and 0.01898 and -0.6526	-0.7206 and -0.7534 and -0.3605 and -0.8106 and -0.1785 and -1.087	-0.5897 and -0.09854 and -0.6224 and 0.01898 and -0.3761 and -0.7316	0.09791 and 0.03243 and -0.6224 and -0.2971 and 0.5325 and 0.3745	-0.0003118 and -0.5242 and 0.06517 and -0.09953 and -0.4156 and 0.177	-0.3277 and -0.295 and -0.8189 and 0.4535 and -0.2971 and -0.4156	-0.3932 and -0.5897 (2×) and 0.4535 and -0.4551 and 0.09799
C[C@H]1CNCCc2ccc(Cl)cc21 [lorcaserin]	≥ 4 fold	36.902 and 34.0112 and 1.008 and 64.4771 and 65.1158 and 60.8849	12.6245 and 12.4103 and 0.5526 and 38.1001 and 37.3361 and 35.7852	4.327 and 4.728 and 0.4991 and 15.3153 and 15.7258 and 16.125	2.1854 and 0.9809 and 0.8203 and 4.949 and 4.904 and 5.611	0.4723 and 0.2314 and 1.222 and 2.349 and 1.654 and 2.0983	-0.3039 and -0.5448 and 0.6329 and 0.4676 and 0.5018 and 0.5816	0.7132 and 0.4188 and 1.757 and 0.2053 and 0.05702 and 0.536	-0.06302 and 0.9006 and 0.8738 and 0.593 and 0.5702 (2×)	0.2582 and -0.1433 and 0.5258 and 0.3193 and 0.2737 and 0.3877	0.2582 and -0.4913 and 0.7132 and 0.3877 and 0.2851 and 0.2965	-0.06302 and -0.4378 and 0.6865 and 0.4904 and 0.2737 and 0.2851	-0.5448 and -0.8928 and 1.141 and 0.1825 and 0.2281 and -0.06842	0.1511 and -0.08979 and 0.7668 and -0.1368 and -0.1254 and -0.1482	0.9809 and -0.009489 and 0.6329 and 0.3991 and 0.3421 and 0.2167	0.6865 and 0.6329 and 1.195 and 0.1825 and 0.0114 and -0.07983	0.4455 and 0.4723 and 1.141 and 0.03421 and 0.0114 and -0.114
CCN(CC)C(=O)[C@@H]1C=C2c3cccc4[nH]cc(c34)C[C@H]2N(C)C1 [LSD]	≥ 4 fold	23.2463 and 21.0198 and 23.6719 and 20.4035 and 14.0827 and 19.0998	8.12 and 8.709 and 6.057 and 5.51 and 6.34 and 6.182	3.405 and 1.833 (2×) and 1.7572 and 2.35 and 2.5473	0.7855 and 1.3421 and 1.375 and 0.5325 and 0.8881 and 0.6116	-0.0003118 and 0.7527 and 0.5563 and 0.256 and -0.2575 and 0.2165	-0.164 and -0.426 and 0.2944 and -0.4946 (2×) and -0.09953	0.7855 and 0.6873 and 0.03243 and 0.1375 and 0.6116 and -0.2575	-0.2295 and 0.4253 and 0.09791 and 0.05849 and -0.2971 and 0.6511	-0.8516 and -0.1968 and 0.1634 and 0.493 and -0.09953 and 0.2955	-0.295 and -0.3605 and -0.426 and -0.1785 and -0.3761 and -0.06003	-0.09854 and 0.2289 and -0.3605 and -0.4946 and -0.5736 and -0.6131	-0.4587 (2×) and -0.1313 and -0.218 and -1.245 and 0.01898	-0.09854 and 0.3598 and 0.6873 and -0.1785 and -0.09953 and 1.007	0.2289 and 1.08 and 0.3926 and 1.086 and 1.046 and -0.2971	-0.4587 and 0.1634 and 0.4253 and 0.7696 and -0.2575 and 1.836	1.735 and 0.5236 and 0.2616 and 0.05849 and -0.218 and 0.3745
CCCN1C[C@H](CSC)C[C@@H]2c3cccc4[nH]cc(c34)C[C@H]21 [pergolide]	≥ 4 fold	13.9149 and 11.9176 and 12.507	9.888 and 9.789 and 7.596	6.6135 and 5.238 and 5.4348	5.599 and 3.8632 and 6.122	3.11 and 1.735 and 0.9819	1.047 and 0.5563 and 0.1634	0.7855 and 0.1634 and 0.8182	-0.0658 and 0.09791 and -0.0003118	-0.426 and -0.3932 and -0.5242	-0.8516 and -0.0003118 and -0.6224	-0.3277 and 0.03243 and -0.5897	-0.7206 and -0.2622 and 0.3598	0.3926 and 0.1634 and 0.4253	0.4253 and 1.047 and -0.2622	0.3271 and -0.09854 and 0.6218	0.5236 and 0.9492 and 0.2616
